Laboratory results taken from patent publication US6225350A, “Butyrate prodrugs derived from lactic acid” (Vertex Pharmaceuticals, Inc., priority 1999, dated 2001).

Legend:
[1] = in vivo; cited from earlier work
[2] = rhesus monkey, in vivo
Method: The efficacy of compound IIIc administered in conjunction with hydroxyurea was tested on six anemic rhesus monkeys divided into three groups of two each. Each group was studied in two phases, as shown below. Fetal hemoglobin cells (F cells), Hemoglobin F level in total Hemoglobin (%Hb F) and %y globin chain levels were monitored before and after each of the two phases. %F cells were measured according to the protocol described in Betke et al, Blut., 4, pp. 241-9 (1958). %Hb F and %y globin chain synthesis were measured using High Performance Liquid Chromatography (HPLC) according to the protocol described in Huisman, J. Chromagtogr., 418, pp. 277 (1987).

[3] = system: Fetal hemoglobin cells (F cells); test: Efficacy study in anemic rhesus monkeys: %F cells; format: in vivo; conditions: for %F cell count: 8-10% before Phase I
Hemoglobin F = test: Efficacy study in anemic rhesus monkeys: %Hb F by HPLC; format: in vivo
y globin chain = test: Efficacy study in anemic rhesus monkeys: %y globin chain by HPLC; format: in vivo
[4] = system: colorectal carcinoma cell lines; conditions: cited from earlier work
[5] = system: retinoblastoma cell lines; conditions: Human Y-79 retinoblastoma cell line; cited from earlier work
pancreatic cancer cells = conditions: cited from earlier work
Erythroleukemic Cells = conditions: cited from earlier work
leukemia = conditions: cited from earlier work
[6] = Group I (hydroxyurea in Phase I, hydroxyurea + compound IIIc in Phase II)

CCCC(=O)OCOC(=O)C(C)(C)C [AN-9]
metabolites / toxic effects [1]: elicit metabolites that may produce formaldehyde in vivo, leading to toxic effects in patients

CCCC(=O)O[C@@H](C)C(=O)OCC [Compound IIIc]
levels of ALT prior to or during the phases [2]: no detectable difference | levels of the triglycerides prior to or during the phases [2]: no detectable difference | %F cell count ([3]; Animal 2, group II, end of Phase I (compound IIIc 1 g/kg/day, 5 weeks)): 15% | %F cell count ([3]; Animal 2, group II, end of Phase II (compound IIIc 1 g/kg/TID, 5 weeks)): 22% | %F cells, change ([3]; Groups II and III): small but significant increase | HBf level, change (Hemoglobin F; Groups II and III): no measurable change | Y-globin chain level, change (y globin chain; Groups II and III): no measurable change

NC(=O)NO [Hydroxyurea]
levels of ALT prior to or during the phases [2]: no detectable difference | levels of the triglycerides prior to or during the phases [2]: no detectable difference | %F cell count ([3]; Animal 1, group I, end of Phase I (hydroxyurea 50 mg/kg/day, 5 weeks)): 25% | %Hb F, change (Hemoglobin F; [6]): measurable increase | %y-globin chain level, change (y globin chain; [6]): measurable increase

CCCC(=O)[O-].[Na+] [Sodium butyrate]
apoptosis in colorectal carcinoma cell lines [4]: induce apoptosis | apoptosis in retinoblastoma cell lines [5]: induce apoptosis | antigen expression in pancreatic cancer cells (pancreatic cancer cells): modify antigen expression

CCCC(=O)O [butyric acid]
cell differentiation in vitro (Erythroleukemic Cells): induces cell differentiation | effects in leukemia patients (leukemia): promising effects in leukemia patients
